Where two headings read alike, the source gives them in different places.
Format: in vivo, Sprague-Dawley rats
Conditions: mean of three rats, liver
Description: The configurational stereoisomers of flocoumafen are separated by high-pressure liquid chromatography using a LUX® Cellulose-4 chiral column (00F-4490-B0, Phenomenex, Le Pecq, France) as stationary phase and a mixture formed from acetonitrile (A) and water comprising 0.1% by volume of formic acid (B), with an A/B volume ratio of 92/8, as mobile phase with a flow rate of the liquid mobile phase in the chromatography column of 0.25 mL/minute. 1 μL of extract comprising flocoumafen at a concentration of 1 μg/mL of acetonitrile is injected. Detection is performed by tandem mass spectrometry (MS/MS) in negative electrospray ionization (ESI) mode. The temperature of the nebulizer gas is 350° C. and its flow rate is 8 L/minute. The pressure of the nebulizer gas is brought to 2700 hPa. In particular, the MRM (“Multiple Reaction Monitoring”) transitions m/z 541.1→382.1 and m/z 541.1→161, corresponding to the flocoumafen signal, are analysed.
Extraction of Flocoumafen from the Liver of Rats Tube-Fed with Flocoumafen
About 0.525 g (±0.025 g) of rat liver is weighed out accurately and placed in a 50 mL polypropylene tube. 10 mL of acetone are added and the suspension is homogenized using an Ultra-Turrax® homogenizer/disperser for a time of about 30 seconds. The homogenizer/disperser shaft is rinsed with hot water and then twice with 20 mL of acetone in a polypropylene tube. The homogenate is centrifuged for 5 minutes at a centrifugation speed of 3000 rpm (revolutions per minute). The supernatant is collected and transferred into a test tube. The sample is subjected to evaporation under a stream of nitrogen (N2) at a temperature of 40° C. so as to form a dry extract.
1 mL of acetonitrile is added to the tube containing the dry extract so as to dissolve it. The acetonitrile solution is washed twice successively with 1 mL of hexane. The lipid-free extract is dried under a stream of nitrogen (N2) at a temperature of 40° C. and is then taken up in 0.5 mL of methanol and dissolved by vortex stirring. 0.5 mL of ultra-pure (Milli-Q) water is then added. The sample is vortex-homogenized.
1 mL of dichloromethane (CH2Ct2), then 1 mL of methanol (CH3OH), then 1 mL of ultra-pure (Milli-Q) water are passed through an Oasis HLB 1 cc cartridge (WAT094225, Waters). The lipid-free liver extract (1 mL MeOH/Milli-Q H2O) containing flocoumafen is then loaded onto the top of the cartridge beforehand. The liver extract penetrates through the cartridge by gravity on contact with the solid phase of the cartridge. 1 mL of washing solution formed from methanol (CH3OH) and ultra-pure water (H2O) in a 90/10 volume proportion is loaded onto the top of the cartridge. The cartridge is dried by suction under vacuum connected to the bottom of the cartridge. 1 mL of eluting solution formed from dichloromethane (CH2Cl2) and methanol (CH3OH) in a 90/10 volume proportion is then loaded onto the top of the cartridge and an eluate comprising flocoumafen is collected at the bottom of the cartridge. The solvent of the eluate is evaporated off under a stream of nitrogen (N2) at a temperature of 40° C. The sample is taken up in 0.5 mL of acetonitrile (NC—CH3) and the acetonitrile solution containing flocoumafen is filtered through a 0.2 μm porosity filter.
Hepatic Persistence of the Configurational Stereoisomers (E1, E2, E3 and E4) of Flocoumafen in Rats
A solution comprising flocoumafen in a mixture of vegetable oil and 5% of DMSO so that the amount of flocoumafen ingested by each rat is about 2.3 mg per kilogram of rat is administered orally (per os) to 8-week-old male and female laboratory rats (Sprague-Dawley rats, Charles River, Saint-Germain-sur-l'Arbresle, France) weighing between 180 and 200 g. The tube-fed rats are treated daily by subcutaneous administration of a dose of vitamin K1 at a rate of 1 U per rat so as to keep the rats alive throughout the experiment. […]

[1] = female rats, D+1 after oral tube-feeding of flocoumafen about 2.3 mg/kg (mixture of 4 stereoisomers)
[2] = female rats, D+3 after oral tube-feeding of flocoumafen about 2.3 mg/kg (mixture of 4 stereoisomers)
[3] = female rats, D+7 after oral tube-feeding of flocoumafen about 2.3 mg/kg (mixture of 4 stereoisomers)
[4] = male rats, D+1 after oral tube-feeding of flocoumafen about 2.3 mg/kg (mixture of 4 stereoisomers)
[5] = male rats, D+3 after oral tube-feeding of flocoumafen about 2.3 mg/kg (mixture of 4 stereoisomers)
[6] = male rats, D+7 after oral tube-feeding of flocoumafen about 2.3 mg/kg (mixture of 4 stereoisomers)

In the case of `O=c1oc2ccccc2c(O)c1C1CC(c2ccc(OCc3ccc(C(F)(F)F)cc3)cc2)Cc2ccccc21` (single isomer, unassigned) [Enantiomer E1, flocoumafen], the Hepatic concentration [1] is reported as 4585 ng/g, the Hepatic concentration [2] is reported as 2692 ng/g and the Hepatic concentration [3] is reported as 1196 ng/g. For the same molecule, the Hepatic concentration [4] was 196 ng/g, the Hepatic concentration [5] was 47 ng/g and the Hepatic concentration [6] was 0 ng/g.

In the case of `O=c1oc2ccccc2c(O)c1C1CC(c2ccc(OCc3ccc(C(F)(F)F)cc3)cc2)Cc2ccccc21` (single isomer, unassigned) [Enantiomer E2, flocoumafen], the Hepatic concentration [1] is reported as 5396 ng/g, the Hepatic concentration [2] is reported as 2522 ng/g and the Hepatic concentration [3] is reported as 469 ng/g. The Hepatic concentration [4] was 3904 ng/g, the Hepatic concentration [5] was 1962 ng/g and the Hepatic concentration [6] was 319 ng/g.

In the case of `O=c1oc2ccccc2c(O)c1C1CC(c2ccc(OCc3ccc(C(F)(F)F)cc3)cc2)Cc2ccccc21` (single isomer, unassigned) [Enantiomer E3, flocoumafen], the Hepatic concentration [1] is reported as 5478 ng/g, the Hepatic concentration [2] is reported as 2734 ng/g and the Hepatic concentration [3] is reported as 1228 ng/g. For the same molecule, the Hepatic concentration [4] was 3301 ng/g, the Hepatic concentration [5] was 1862 ng/g and the Hepatic concentration [6] was 647 ng/g.

For `O=c1oc2ccccc2c(O)c1C1CC(c2ccc(OCc3ccc(C(F)(F)F)cc3)cc2)Cc2ccccc21` (single isomer, unassigned) [Enantiomer E4, flocoumafen], the Hepatic concentration [1] was 10342 ng/g, the Hepatic concentration [2] was 7765 ng/g and the Hepatic concentration [3] was 5054 ng/g. The Hepatic concentration [4] was 8143 ng/g, the Hepatic concentration [5] was 9906 ng/g and the Hepatic concentration [6] was 2623 ng/g.

Source: patent US10654822B2, “Composition and rodenticidal bait comprising flocoumafen, and process for controlling target rodent pests” (priority 2015, dated 2020)
